Structures are written as SMILES.

Data on 3 molecules can be found in US20100234455A1, “Histone Deacetylase Inhibitors” (Errant Gene Therapeutics, LLC, priority 2004, published 2010).

Experiment [1] concerns PC-3 cells. Briefly: Bax and p21 activation in PC-3 cells (p53-/-, no HDAC2). As to conditions: do not express HDAC2. The format is cell-based.
The test system of experiment [2] is rat fibroblasts. As to conditions: cited from earlier work.
The subject of experiment [3] is tumors. As to conditions: cited from earlier work.
The test system of experiment [4] is LNCaP cells (human prostate cancer cells). Briefly: p53 acetylation, p21 and Bax effects in LNCaP cells. It counts as cell-based.
In experiment [5] the test system is HDAC. As to conditions: cited from earlier work.

As to `CC(/C=C/C(=O)NO)=C\[C@@H](C)C(=O)c1ccc(N(C)C)cc1` [TSA, trichostatin A], in experiment [1], the “p53 dependent activation of Bax” value is reported as “absent” and the “p53 independent p21 activation” value is “p53 independent p21 activation was observed”. Also, the “cell cycle arrest of rat fibroblasts” value in experiment [2] was “causes arrest of rat fibroblasts at the G1 and G2 phases of the cell cycle”. The “formation of tumors in mice” value in experiment [3] is “prevent the formation of tumors in mice”. For the same molecule, in experiment [4] (LNCaP cells), the “Bax mitochondrial translocation and cleavage” value is “nor did it affect Bax translocation and cleavage”; the cell cycle arrest result is “induced p21 and cell cycle arrest”; the p21 levels entry is given as “induced p21”; the “steady state level of cytosolic Bax” value is on record as “did not alter Bax levels”. In addition, the HDAC activity result in experiment [5] is “HDAC activity is inhibited”.
As for `O=C(C=CC=CC=Cc1ccccc1)NO` [7-phenyl-2,4,6-heptatrienoylhydroxamic acid], in experiment [1], the “p53 dependent activation of Bax” value is listed as “absent” and the “p53 independent p21 activation” value is “p53 independent p21 activation was observed”. The “level of histone acetylation” value in experiment [4] is reported as “increasing the level of histone acetylation”. Further, in experiment [4] (LNCaP cells), the “Bax mitochondrial translocation and cleavage” value was “induced Bax mitochondrial translocation and cleavage”; the cell cycle arrest entry was “cell cycle arrest, primarily at G2/M interface”; the “degradation of HDAC2” value was “induction of selective degradation of HDAC2”; the “levels of total p53” value is “increases the levels of total p53”. Moreover, in experiment [4] (LNCaP cells), the p21 levels entry is “p53-dependent increase in p21 levels” and the “steady state level of cytosolic Bax” value is reported as “increased the steady state level of cytosolic Bax”. In addition, the “acetylation of p53 at Lys320” value in experiment [4] (Lys320) is “not Lys320”. Besides, the “acetylation of p53 at Lys373 and Lys382” value in experiment [4] (Lys373 and Lys382) is “stabilizes the acetylation of p53 at amino acids Lys373 and Lys382”.
As for `O=C(CCCCCCC(=O)Nc1ccccc1)NO` [SAHA, suberoylanilide hydroxamic acid], the “formation of tumors in mice” value in experiment [3] is “prevent the formation of tumors in mice”. In addition, the HDAC activity entry in experiment [5] is given as “HDAC activity is inhibited”.
